Earlier results in patent publication US11324772B2, “Periodontal gel composition and method of use” (PRUDENTIX LTD., priority 2017, dated 2022).

pH range in which octenidine is stable and maintains its antimicrobial activity (pH): 1.6-12.2
temperature up to which it can be sterilized by steam in aqueous solutions (steam, aqueous solutions): up to 130 °C
Structure (SMILES): CCCCCCCCN=c1ccn(CCCCCCCCCCn2ccc(=NCCCCCCCC)cc2)cc1 [octenidine, 1,1′,4,4′-tetrahydro-N,N′-dioctyl-1,1′-decametylenedi-(4-pyridylideneamine)]
